The experiment has as its target T1, human factor Xa (Homo sapiens, UniProt P00742).
T1 construct: factor Xa, which is formed from the proenzyme factor X
As to the kind of experiment: Determination of the factor Xa inhibition (fluorogenic substrate Boc-Ile-Glu-Gly-Arg-AMC). It is filed as biochemical. The conditions noted are these: 15 min preincubation at 22° C., substrate 5 μmol/l, pH 7.4, fluorescence 360/460 nm. How it is done: In order to determine the factor Xa inhibition of the substances listed above, a biochemical test system is set up, in which the conversion of a factor Xa substrate is used to determine the enzymatic activity of human factor Xa. Factor Xa cleaves aminomethylcoumarin, whose fluorescence is measured, from the peptidic substrate. The determinations are carried out in microtitre plates.
Substances to be tested, in various concentrations, are dissolved in dimethyl sulphoxide and incubated for 15 min at 22° C. with human Factor Xa ([…] dissolved in 50 mmol/l of Tris buffer [C,C,C-tris(hydroxymethyl)aminomethane], 100 mmol/l NaCl, 0.1% BSA [bovine serum albumin], pH 7.4). The substrate (5 μmol/l of Boc-Ile-Glu-Gly-Arg-AMC from Bachem) is then added. After an incubation time of 30 min, the sample is excited at a wavelength of 360 nm, and the emission at 460 nm is measured. The measured emissions of the test batches with test substance are compared to the control batches without test substance (only dimethyl sulphoxide instead of test substance in dimethyl sulphoxide), and IC50 values are calculated from the concentration/activity relationships.

Structures can show the parent of a compound that is named as a salt.

T1 sequence (P00742 235-488 limits assumed): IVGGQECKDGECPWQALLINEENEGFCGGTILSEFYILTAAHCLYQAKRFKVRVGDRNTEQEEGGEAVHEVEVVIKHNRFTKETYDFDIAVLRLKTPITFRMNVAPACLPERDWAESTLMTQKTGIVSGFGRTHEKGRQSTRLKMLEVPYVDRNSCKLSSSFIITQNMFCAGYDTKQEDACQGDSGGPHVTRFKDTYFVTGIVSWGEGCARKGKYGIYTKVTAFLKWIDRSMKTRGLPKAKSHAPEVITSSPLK
T1 sequence (P00742 41-179 partner limits assumed): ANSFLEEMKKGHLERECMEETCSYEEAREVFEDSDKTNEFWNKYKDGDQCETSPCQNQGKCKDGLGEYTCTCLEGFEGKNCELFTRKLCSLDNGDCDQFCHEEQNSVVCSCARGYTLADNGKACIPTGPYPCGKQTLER

`N=C1OCCN1c1ccc(C2=NOC(CNC(=O)c3ccc(Cl)s3)C2)cc1` (centres unmarked) [Example 1, 5-Chloro-N-({3-[4-(2-imino-1,3-oxazolidin-3-yl)phenyl]-4,5-dihydroisoxazol-5-yl}methyl)thiophene-2-carboxamide] showed an IC50 of 7.9 nM. For `N=C1OCCN1c1ccc(-n2cc(CNC(=O)c3ccc(Cl)s3)c(-c3ccccc3)n2)cc1` [Example 2, 5-Chloro-N-({1-[4-(2-imino-1,3-oxazolidin-3-yl)phenyl]-3-phenyl-1H-pyrazol-4-yl}methyl)thiophene-2-carboxamide hydrochloride], 1.4 nM corresponded to half-maximal inhibition (IC50).

(Values after US20110015241A1, “SUBSTITUTED HETEROCYCLES AND USE THEREOF” (BAYER SCHERING PHARMA AKTIENGESELLSCHAFT, priority 2006, published 2011).)
